Reference: patent publication US11547709B2, “Methods of treating disorders associated with castor” (ST. JUDE CHILDREN'S RESEARCH HOSPITAL, INC., priority 2017, dated 2023)

Tests used:
Format in all cases: in vivo
[1] = tested on: Pcca−/−(A138T) mouse model of propionic acidemia; test: Blood ammonia levels in mouse model of propionic acidemia; conditions: chow with 225 ppm PZ-2891 plus 1000 ppm Pan for 7 days vs 1000 ppm Pan alone; p=0.0032
Experimental: Referring to FIG. 2, a mouse model of propionic acidemia, the Pcca−/−(A138T) (Guensel et al. (2013) Mol. Ther. 21: 1316-1323), was fed chow containing either 1000 ppm pantothenate (Pan) or 225 ppm PZ-2891 plus 1000 ppm Pan for 7 days. Blood was drawn from 6 mice per group and blood ammonia levels were determined using a GM7 Micro-Stat Analyser (Analox Instruments, www.analox.com) and the Analox Blood Ammonia Reagent kit according to the manufacturer's instructions. Statistical analysis was performed using the Students unpaired t-test and p=0.0032.

[2] = tested on: Pcca−/−(A138T) mouse model of propionic acidemia; test: Total liver CoA levels in Pcca mouse model; conditions: chow with 1000 ppm pantothenate plus 75 ppm PZ-3022 from day 21, measured at 70 days
Experimental: (§1) Referring to FIG. 4, a mouse model of propionic acidemia, the Pcca−/−(A138T) mouse (Guensel et al. (2013) Mol. Ther. 21: 1316-23) was fed chow or chow containing 1000 ppm pantothenate plus 75 ppm PZ-3022 beginning at day 21. At 70 days, the liver CoA levels were measured.

[3] = tested on: Pcca−/−(A138T) mouse model of propionic acidemia; test: Liver CoA, acetyl-CoA and propionyl-CoA levels in Pcca mouse model; conditions: chow with 1000 ppm pantothenate plus 75 ppm PZ-3022 from day 21, measured at 70 days
Experimental: Referring to FIG. 5, a mouse model of propionic acidemia, the Pcca−/−(A138T) (mouse Guensel et al. (2013) Mol. Ther. 21: 1316-23) was fed chow or chow containing 1000 ppm pantothenate plus 75 ppm PZ-3022 beginning at day 21. At 70 days, the liver CoA, acetyl-CoA and propionyl-CoA levels were measured. The Pcca mice had lower free CoA, lower acetyl-CoA and very elevated propionyl-CoA compared to wild-type.

[4] = tested on: Pcca−/−(A138T) mouse model of propionic acidemia; test: Plasma acyl-carnitine levels in Pcca mouse model; conditions: chow with 1000 ppm pantothenate plus 75 ppm PZ-3022 from day 21, plasma at 70 days
Experimental: as §1, with “6A and FIG. 6B,” for “4,”, “(mouse Guensel” for “mouse (Guensel”, “plasma was analyzed for the” for “liver CoA”, “of acyl-carnitines.” for “were measured.”
Referring to FIG. 7, the data in FIG. 5 are presented as the C3:C2 ration of plasma carnitines.

Row | SMILES | blood ammonia levels [1] | liver CoA levels (total) [2] | liver acetyl-CoA [3] | liver free CoA [3] | liver propionyl-CoA [3] | C3:C2 ratio of plasma carnitines [4] | plasma acetyl-carnitine [4]
1 | CC(C)c1ccc(CC(=O)N2CCN(c3ccc(C#N)nn3)CC2)cc1 [PZ-2891] | Reduction of Blood Ammonia Levels |  |  |  |  |  | 
2 | N#Cc1ccc(N2CCN(C(=O)Cc3ccc(C4CC4)cc3)CC2)nn1 [PZ-3022] |  | the CoA levels were elevated | elevated free CoA and acetyl-CoA | elevated free CoA | propionyl-CoA was reduced | reduced the highly elevated C3:C2 ratio | elevated acetyl-carnitine
